Test results reported in patent US9409952B2, “Peptide-compound cyclization method” (Chugai Seiyaku Kabushiki Kaisha, priority 2011, dated 2016).
Starred links: 1 amine or outer side, 2 acyl side, 3 side chain; linkers in the order of their positions; H or OH if unused. Positions of bridges follow the written chain, without caps; N, C: chain ends. Non-standard residues stand in square brackets, D forms with d. Residues, ends and D or L forms follow the SMILES beside them. *: point of attachment. NMeF = CN[C@@H](Cc1ccccc1)C(=O)O; NMeβAla = CN(CCC(=O)[*:2])[*:1]; NMeL = CN[C@@H](CC(C)C)C(=O)O; NMeV = CN[C@H](C(=O)O)C(C)C; NMeA = CN[C@@H](C)C(=O)O; Piperidide = C1CCN(*)CC1; dNMeA = CN[C@H](C)C(=O)O; Sar = CNCC(=O)O

Legend:
[1] = PAMPA (parallel artificial membrane permeability assay); type: in vitro ADME; settings: PAMPA; membrane permeation rate (Pe); 50 mM MOPSO buffer pH 6.5 with 5.0% glycocholic acid, 37° C., 18 hours; read-out: iPAMPA Pe
In short: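 Artificial membrane was 10% (w/v) egg lecithin plus 0.5% (w/v) cholesterol in dodecane on a PVDF filter. A 10 mM DMSO stock was added at 0.5% (v/v) to donor buffer (50 mM MOPSO, pH 6.5, 5.0% glycocholic acid). After 18 h at 37 °C, LC/MS or LC/UV gave donor and acceptor levels for Pe.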

[2] = Metabolic stability in human hepatic microsome; type: in vitro ADME; settings: microsomes, pH 7.4; human hepatic microsome, NADPH(+); read-out: CL NADPH(+)

Structure (SMILES) | Papp at 18 hours, 50 µM [1] [×10⁻⁶ cm/s] | microsomal CLint at 1 uM [2] [µL/min/mg]
CC(C)C[C@@H]1NC(=O)[C@H](CC(C)C)N(C)C(=O)CCN(C)C(=O)C[C@@H](C(=O)N(C)[C@@H](Cc2ccccc2)C(=O)N[C@@H](C)C(=O)N2CCCCC2)NC(=O)[C@H](C)N(C)C(=O)[C@H]([C@@H](C)O)NC(=O)[C@H](Cc2ccccc2)NC(=O)[C@H](CC(C)C)N(C)C(=O)CNC(=O)[C@H](Cc2ccccc2)N(C)C1=O [DP-446] ([NMeβAla][NMeL]L[NMeF]G[NMeL]FT[NMeA]D[NMeF]A-Piperidide; lactam N-10) | 40 | 104
CC[C@H](C)[C@@H]1NC(=O)[C@H](CC(C)C)N(C)C(=O)[C@H](C(C)C)N(C)C(=O)CCN(C)C(=O)C[C@@H](C(=O)N(C)[C@@H](Cc2ccccc2)C(=O)N[C@@H](C)C(=O)N2CCCCC2)NC(=O)[C@H]([C@@H](C)O)NC(=O)[C@H](Cc2ccccc2)N(C)C(=O)[C@H](C)N(C)C(=O)[C@H](CC(C)C)NC(=O)[C@H](C(C)C)N(C)C1=O [DP-447] ([NMeβAla][NMeV][NMeL]I[NMeV]L[NMeA][NMeF]TD[NMeF]A-Piperidide; lactam N-10) | 33 | 159
CC(C)C[C@H]1C(=O)N(C)[C@@H](C)C(=O)N[C@@H](C(C)C)C(=O)N[C@H](C(=O)N(C)[C@@H](Cc2ccccc2)C(=O)N[C@@H](C)C(=O)N2CCCCC2)CC(=O)N(C)CCC(=O)N(C)[C@@H](C(C)C)C(=O)N(C)[C@@H](C)C(=O)N[C@@H](Cc2ccccc2)C(=O)N[C@@H]([C@@H](C)O)C(=O)N(C)[C@@H](C)C(=O)N1C [DP-448] ([NMeβAla][NMeV][NMeA]FT[NMeA][NMeL][NMeA]VD[NMeF]A-Piperidide; lactam N-10) | 6.2 | 27
CC(C)C[C@H]1C(=O)N[C@H](C(=O)N(C)[C@@H](Cc2ccccc2)C(=O)N[C@@H](C)C(=O)N2CCCCC2)CC(=O)N(C)CCC(=O)N(C)[C@@H](C)C(=O)N[C@@H](C(C)C)C(=O)N(C)[C@@H](C(C)C)C(=O)N(C)[C@@H](Cc2ccccc2)C(=O)N(C)CC(=O)N[C@@H]([C@@H](C)O)C(=O)N(C)[C@@H](C)C(=O)N1C [DP-449] ([NMeβAla][NMeA]V[NMeV][NMeF][Sar]T[NMeA][NMeL]D[NMeF]A-Piperidide; lactam N-10) | 6 | 6
CC(C)[C@@H]1NC(=O)[C@H](C)N(C)C(=O)[C@H](C(C)C)N(C)C(=O)CCN(C)C(=O)C[C@@H](C(=O)N(C)[C@@H](Cc2ccccc2)C(=O)N(C)[C@@H](Cc2ccccc2)C(=O)N[C@@H](C)C(=O)N2CCCCC2)NC(=O)[C@H](C)N(C)C(=O)[C@H](C)N(C)C(=O)[C@H]([C@@H](C)O)NC(=O)[C@H](C)N(C)C(=O)[C@H](Cc2ccccc2)N(C)C1=O [DP-450] ([NMeβAla][NMeV][NMeA]V[NMeF][NMeA]T[NMeA][NMeA]D[NMeF][NMeF]A-Piperidide; lactam N-10) | 2.3 | 17
CC(C)C[C@@H]1NC(=O)[C@H](CC(C)C)N(C)C(=O)[C@H](CC(C)C)N(C)C(=O)[C@@H](C)N(C)C(=O)C[C@@H](C(=O)N(C)[C@@H](Cc2ccccc2)C(=O)N[C@@H](C)C(=O)N2CCCCC2)NC(=O)[C@H](CC(C)C)N(C)C(=O)[C@H](Cc2ccccc2)NC(=O)[C@H](Cc2ccccc2)N(C)C(=O)[C@H](C)NC(=O)[C@H]([C@@H](C)O)NC1=O [DP-451] ([dNMeA][NMeL][NMeL]LTA[NMeF]F[NMeL]D[NMeF]A-Piperidide; lactam N-10) | 35 | 14
CC(C)C[C@H]1C(=O)NCC(=O)N[C@@H]([C@@H](C)O)C(=O)N(C)[C@@H](C(C)C)C(=O)N[C@@H](Cc2ccccc2)C(=O)N[C@H](C(=O)N(C)[C@@H](Cc2ccccc2)C(=O)N(C)[C@@H](Cc2ccccc2)C(=O)N[C@@H](C)C(=O)N2CCCCC2)CC(=O)N(C)[C@H](C)C(=O)N(C)[C@@H](C)C(=O)N[C@@H](C(C)C)C(=O)N(C)[C@@H](Cc2ccccc2)C(=O)N1C [DP-452] ([dNMeA][NMeA]V[NMeF][NMeL]GT[NMeV]FD[NMeF][NMeF]A-Piperidide; lactam N-10) | 22 | 21
CC[C@H](C)[C@@H]1NC(=O)[C@H](C)N(C)C(=O)[C@H]([C@@H](C)O)NC(=O)[C@H](CC(C)C)N(C)C(=O)[C@H](Cc2ccccc2)NC(=O)[C@H](C(C)C)N(C)C(=O)[C@@H](C)N(C)C(=O)C[C@@H](C(=O)N(C)[C@@H](Cc2ccccc2)C(=O)N[C@@H](C)C(=O)N2CCCCC2)NC(=O)[C@H](C)N(C)C(=O)[C@H](CC(C)C)N(C)C1=O [DP-453] ([dNMeA][NMeV]F[NMeL]T[NMeA]I[NMeL][NMeA]D[NMeF]A-Piperidide; lactam N-10) | 25 | 64
CC[C@H](C)[C@@H]1NC(=O)[C@H](C(C)C)N(C)C(=O)[C@H](CC(C)C)N(C)C(=O)[C@H](Cc2ccccc2)NC(=O)[C@@H](C)N(C)C(=O)C[C@@H](C(=O)N(C)[C@@H](Cc2ccccc2)C(=O)N(C)[C@@H](Cc2ccccc2)C(=O)N[C@@H](C)C(=O)N2CCCCC2)NC(=O)[C@H](C)N(C)C(=O)[C@H]([C@@H](C)O)NC(=O)[C@H](CC(C)C)N(C)C(=O)CN(C)C1=O [DP-454] ([dNMeA]F[NMeL][NMeV]I[Sar][NMeL]T[NMeA]D[NMeF][NMeF]A-Piperidide; lactam N-10) | 14 | 50
CC[C@H](C)[C@@H]1NC(=O)[C@H](C)N(C)C(=O)[C@H](Cc2ccccc2)N(C)C(=O)[C@@H](C)N(C)C(=O)C[C@@H](C(=O)N(C)[C@@H](Cc2ccccc2)C(=O)N(C)[C@@H](Cc2ccccc2)C(=O)N[C@@H](C)C(=O)N2CCCCC2)NC(=O)[C@H](C)N(C)C(=O)[C@H]([C@@H](C)O)NC(=O)[C@H](C)N(C)C(=O)[C@H](CC(C)C)N(C)C(=O)[C@H](C)N(C)C1=O [DP-455] ([dNMeA][NMeF][NMeA]I[NMeA][NMeL][NMeA]T[NMeA]D[NMeF][NMeF]A-Piperidide; lactam N-10) | 15 | 17
CC(C)C[C@H]1C(=O)N[C@@H](Cc2ccccc2)C(=O)N(C)[C@@H](C(C)C)C(=O)N[C@@H]([C@@H](C)O)C(=O)N[C@H](C(=O)N(C)[C@@H](Cc2ccccc2)C(=O)N(C)[C@@H](Cc2ccccc2)C(=O)N[C@@H](C)C(=O)N2CCCCC2)CC(=O)N(C)[C@@H](C)C(=O)N(C)[C@@H](C)C(=O)N[C@@H](C(C)C)C(=O)N(C)[C@@H](Cc2ccccc2)C(=O)NCC(=O)N1C [DP-456] ([NMeA][NMeA]V[NMeF]G[NMeL]F[NMeV]TD[NMeF][NMeF]A-Piperidide; lactam N-10) | 41 | 29
CC(C)[C@@H]1NC(=O)[C@H](C)N(C)C(=O)[C@H](C)N(C)C(=O)[C@H](Cc2ccccc2)N(C)C(=O)CNC(=O)[C@H]([C@@H](C)O)NC(=O)[C@H](C(C)C)N(C)C(=O)[C@H](C)NC(=O)[C@H](C)N(C)C(=O)C[C@@H](C(=O)N(C)[C@@H](Cc2ccccc2)C(=O)N(C)[C@@H](Cc2ccccc2)C(=O)N[C@@H](C)C(=O)N2CCCCC2)NC1=O [DP-457] ([NMeA]A[NMeV]TG[NMeF][NMeA][NMeA]VD[NMeF][NMeF]A-Piperidide; lactam N-10) | 10 | 14
